Measurements from patent publication US11149055B2, “Crystal form of lanosterol prodrug compound and application thereof” (GUANGZHOU OCUSUN OPHTHALMIC BIOTECHNOLOGY CO., LTD., priority 2018, dated 2021).
Read-outs that look alike come from different tables or passages of the source.

What was measured:
[1] = tested on: lens glutathione peroxidase (GSH-PX) activity; assay: Lens glutathione peroxidase (GSH-PX) activity assay, ultraviolet-induced cataract model; format: in vivo, New Zealand rabbit; conditions: after 42 days of administration
Experimental: (§1) Adult New Zealand rabbits 2.0-2.5 kg, normal grade, male and female, a total of 25.
(§2) The experimental rabbits were randomly divided into 5 groups with 5 rabbits per group.
(§3) 2) Model control group (MC): 313 nm UV irradiation for 24 hours to make model, then drug-free blank eye drops were dripped into the right eye 3 times every day for 42 days.
(§4) 3) Positive control group (PC): 313 nm UV irradiation for 24 hours to make model, then Kary Uni eye drops (Santen Pharmaceutical Co., Ltd in Japan) were dripped into the right eye 3 times every day for 42 days.
(§5) 4) Lanosterol eye drops treatment group (LT): 313 nm UV irradiation for 24 hours to make model, then lanosterol eye drops were dripped into the right eye 3 times every day for 42 days.
(§6) 5) Lanosterol prodrug 026 eye drops treatment group (026): 313 nm UV irradiation for 24 hours to make model, then the lanosterol prodrug 026 eye drops were dripped into the right eye 3 times every day for 42 days.
(§7) 3) Glutathione peroxidase (GSH-PX) activity assay: GSH-PX activity of the isolated rabbit lens in each group was determined by the method provided in the specification of GSH-PX activity detection kit (Nanjing Jiancheng Bioengineering Institute). The experimental data were analyzed by One-Way ANOVA with SPSS statistical software. The LSD method was used to compare the groups, and the statistical difference level was p<0.05.

[2] = tested on: ultraviolet-induced New Zealand rabbit cataract model; assay: Slit lamp observation, ultraviolet-induced cataract model; format: in vivo; conditions: ultraviolet model (313 nm UV 24 hours); eye drops right eye 3 times every day for 42 days
Experimental: as §1, §2, §3, §4, §5, §6

[3] = Penetration of ocular drugs in the body and conversion to lanosterol (aqueous humor concentration after eye drops); format: in vivo, New Zealand white rabbit; conditions: for AUC: New Zealand white, rabbit; for Penetration into the aqueous humor: from the cornea or through other routes
Experimental: In this study, New Zealand white rabbits (body weight was more than 2 kg, aged more than 12 weeks) were used as experimental animals. Each compound was studied in two New Zealand white rabbits. Each rabbit was instilled with 50 μL of eye drops in each eye, three eyes were used to collect aqueous humor samples and one eye was used as a backup. The formula of the eye drops was 1.2% hydroxypropyl methylcellulose (E5 size), 20.5% poloxamer (P407 size), 1.6% poloxamer (P188 size), the concentration of the compound was 5 mM, and the eye drops were homogeneous suspensions. After the eye drops were dripped into the rabbit's eyes, the anterior aqueous humor was collected 0.5, 2, 4 and 6 hours after administration. The volume of each sample was not more than 50 μL. Each animal was given mild anesthesia before collecting samples. Three samples were collected at each time point. The collected aqueous humor samples were stored in dry ice immediately after collection or stored in a refrigerator at −80±10° C. After the sample collection, the animals were euthanized. The concentration of the compound in each sample was determined using a triple quadrupole mass spectrometer (API 4000). Tables 3 and 4 show the DMPK determination conditions in vivo; Tables 5 and 6 show the drug concentration in the aqueous humor after compound lanosterol (parent drug) and the prodrug compound were dripped into eyes ([…]).

[4] = tested on: ultraviolet-induced New Zealand rabbit cataract model; assay: Lens transparency test in vitro, ultraviolet-induced cataract model; format: in vivo; conditions: after 42 days of administration, left eye as self-control
Experimental: as §1, §2, §3, §4, §5, §6
2) Lens transparency test in vitro: on the last day, the animal's eyeball was dissected, the lens containing the capsule was completely separated, and the lens was placed on a grid paper (2.12×2.12 mm). The photographs show the sharpness of the grid photographed through the lens.

[5] = tested on: lens glutathione peroxidase (GSH-PX) activity; assay: Lens glutathione peroxidase (GSH-PX) activity assay, sodium selenite-induced cataract model; format: in vivo, New Zealand rabbit; conditions: after 42 days of administration
Experimental: (§8) P7 days old neonatal New Zealand rabbits, normal grade, and 5 young rabbits per litter were breast-fed with a mother rabbit.
(§9) The experimental young rabbits were randomly divided into 5 groups with 5 rabbits per group.
(§10) 2) Model control group (MC): in the P10 day, the young rabbits were injected subcutaneously with sodium selenite solution (in physiological saline) at a dose of 20 μmol/kg body weight, and after the P15 day, drug-free blank eyes drops were dripped into the right eye 3 times every day for 42 days.
as §10, with “3) Positive” for “2) Model”, “(PC):” for “(MC):”, “Kary Uni eye” for “drug-free blank eyes”, “drops (Santen Pharmaceutical Co., Ltd in Japan)” for “drops”
as §10, with “4) Lanosterol eye drops treatment” for “2) Model control”, “(LT):” for “(MC):”, “lanosterol eye” for “drug-free blank eyes”
as §10, with “5) Lanosterol prodrug 026 eye drops treatment” for “2) Model control”, “(026, the compound of formula (I)):” for “(MC):”, “lanosterol prodrug 026 eye” for “drug-free blank eyes”
as §7, with “was” for “were”

[6] = tested on: sodium selenite-induced neonatal New Zealand rabbit cataract model; assay: Lens transparency test in vitro, sodium selenite-induced cataract model; format: in vivo; conditions: after 42 days of administration, left eye as self-control
Experimental: as §8, §9, §10
as §10, with “3) Positive” for “2) Model”, “(PC):” for “(MC):”, “Kary Uni eye” for “drug-free blank eyes”, “drops (Santen Pharmaceutical Co., Ltd in Japan)” for “drops”
as §10, with “4) Lanosterol eye drops treatment” for “2) Model control”, “(LT):” for “(MC):”, “lanosterol eye” for “drug-free blank eyes”, “days. […]” for “days.”

[7] = tested on: sodium selenite-induced neonatal New Zealand rabbit cataract model; assay: Slit lamp observation, sodium selenite-induced cataract model; format: in vivo; conditions: eye drops right eye 3 times every day for 42 days
Experimental: as §8, §9, §10
as §10, with “3) Positive” for “2) Model”, “(PC):” for “(MC):”, “Kary Uni eye” for “drug-free blank eyes”, “drops (Santen Pharmaceutical Co., Ltd in Japan)” for “drops”
as §10, with “4) Lanosterol eye drops treatment” for “2) Model control”, “(LT):” for “(MC):”, “lanosterol eye” for “drug-free blank eyes”, “days. […]” for “days.”

[8] = Pre-stability experiment (influencing factors: high temperature, high humidity, light); format: physicochemical; conditions: 60° C. open; relative humidity 92.5% open; light 1 ICH; up to 10 days
Experimental: The crystal form A of the compound of formula (I) was placed under the following 3 conditions and tested for appearance, XRPD, content and related substances at different time points.
10 mg of the crystal form A of the compound of formula (I) was accurately weighted and placed in a sample bottle, and then spread to form a thin layer. The samples were placed under 60° C., 92.5% RH, the mouth of the bottle was directly wrapped with aluminum foil which was punctured to get some small holes to ensure that the sample can fully contact the ambient air. The samples were placed respectively in a dry box and a glass jar containing saturated potassium nitrate solution. The illuminated sample (open, not covered with aluminum foil) and the illuminated control sample (open, the sample bottle was entirely covered with aluminum foil) were placed in the light box. 2 parts of the sample were weighted at each time point as the formal test sample. In addition, about 5 mg of the crystal form A of the compound of formula (I) was weighted for XRPD testing; the sample bottle was wrapped with aluminum foil which was punctured to get some small holes; the samples were also placed in the corresponding drying box and the glass jar containing saturated potassium nitrate solution. […]

[9] = Hygroscopicity study by Dynamic Vapor Sorption (DVS); format: physicochemical; conditions: 25° C. and 80% RH
Experimental: Dynamic Vapor Sorption (DVS)
Detection method: samples (10 mg to 20 mg) were placed in a DVS sample tray for testing.
Equilibrium: dm/dt: 0.01%/min: (Shortest: 10 min, longest: 180 min)
RH (%) gradient for testing: 10%
RH (%) gradient range for testing: 0% to 90% to 0%
The hygroscopicity was evaluated using the following scales:
SMS DVS Advantage Dynamic Vapor Sorption System
10 to 15 mg of the crystal form A of the compound of formula (I) was placed in the DVS sample tray for testing.

SMILES	Effect on lens GSH-PX activity compared with the other treatments [1]	Lens GSH-PX activity vs MC group [1]	Cataract symptoms by slit lamp observation, after vs before administration [2]	Average concentration of the compound of formula (I) in the aqueous humor ([3]; 250 nmol the compound of formula (I) dripped into each eye, analyte prodrug, 0.5 hour) [nM]	Average concentration of the compound of formula (I) in the aqueous humor ([3]; 250 nmol the compound of formula (I) dripped into each eye, analyte prodrug, 2 hour) [nM]	Average concentration of the compound of formula (I) in the aqueous humor ([3]; 250 nmol the compound of formula (I) dripped into each eye, analyte prodrug, 4 hour) [nM]	Average concentration of the compound of formula (I) in the aqueous humor ([3]; 250 nmol the compound of formula (I) dripped into each eye, analyte prodrug, 6 hour)	AUC ([3]; in vivo, 250 nmol the compound of formula (I) dripped into each eye, analyte prodrug, read-out: AUC (exposure amount) of the compound of formula (I) in the aqueous humor) [µM·h]	Conversion into the parent drug lanosterol ([3]; during the infiltration process)	Lanosterol concentration and exposure in the aqueous humor compared with lanosterol eye drops ([3]; eye drops)	Penetration into the aqueous humor ([3]; eye drops)	Lens transparency in vitro of administered right eye [4]	Effect on lens GSH-PX activity compared with the other treatments [5]	Lens GSH-PX activity vs MC group [5]	Lens transparency in vitro of administered right eye [6]	Cataract symptoms by slit lamp observation, after vs before administration [7]	AUC ([3]; aqueous humor, topical, 250 nmol per eye, 250 nmol lanosterol dripped into each eye, read-out: AUC (exposure amount) of lanosterol in the aqueous humor) [µM·h]	Crystal form stability (appearance, XRPD, content, related substances) [8]	Hygroscopic weight gain (ΔW) [9] [%]	Hygroscopicity scale [9]
CC(C)=CCC[C@@H](C)[C@H]1CC[C@@]2(C)C3=C(CC[C@]12C)[C@@]1(C)CC[C@H](OC(=O)c2ccccc2O)C(C)(C)C1CC3 (some centres unmarked) [the compound of formula (I)]	better than that of Kary Uni	capable of increasing the GSH-PX activity of the lens	cataract symptoms were significantly reduced	41.0	33.3	25.5	BQL	0.124	capable of converting into the parent drug lanosterol	higher concentration and exposure of lanosterol in the aqueous humor	capable of penetrating into the aqueous humor	significantly higher than that of the left eye	better than that of Kary Uni	capable of increasing the GSH-PX activity of the lens	significantly higher than that of the left eye	cataract symptoms were significantly reduced	–	–	–	–
CC(C)=CCC[C@@H](C)[C@H]1CC[C@@]2(C)C3=C(CC[C@]12C)[C@@]1(C)CC[C@H](O)C(C)(C)[C@@H]1CC3 [Lanosterol]	significantly lower than that of 026 and Kary Uni	no statistical difference compared to the MC group	no evident change	–	–	–	–	–	–	–	capable of penetrating into the aqueous humor	no significant change in lens transparency	significantly lower than that of 026 and Kary Uni	no statistical difference compared to the MC group	no significant change in lens transparency	no evident change	1.78	–	–	–
CC(C)=CCC[C@@H](C)[C@H]1CC[C@@]2(C)C3=C(CC[C@]12C)[C@@]1(C)CC[C@H](OC(=O)c2ccccc2O)C(C)(C)C1CC3 (some centres unmarked)	–	–	–	–	–	–	–	–	–	–	–	–	–	–	–	–	–	the crystal form has not changed after the experiment, and its stability is good	0.747	slightly hygroscopic
